# From patent US20180344702A1, “METHODS FOR TREATING PATIENTS WITH HEMATOLOGIC MALIGNANCIES” (Aptose Biosciences, Inc., priority 2017, published 2018)
# Legend:
# [1] = test system: Aurora kinase in Mino, Ramos and SU-DHL6; assay: Aurora kinase inhibition in B-cell lines (Western blot); type: cell-based; conditions: FIGS. 13A-13C
# Method: Inhibition of Aurora kinase activity was measured by western blotting for phosphorylation levels of Aurora kinases or and down-stream targets and by cell cycle and DNA content analysis. Whole cell extracts from Compound 7 treated cells were resolved by gel electrophoresis and transferred to nitrocellulose membranes and inhibition of Aurora kinase A/B and H3S10 phosphorylation was detected with specific antibodies. DNA synthesis and cell cycle phase was assessed by staining compound 7 of vehicle treated cells with 5-ethynyl-2′deoxyuridine (Edu) Alexa Fluor 488 and PI.
# [2] = test system: Ba/F3 cells transfected with FLT3 ITD; assay: Cytotoxicity in isogenic transfected Ba/F3 cells (Table 4); type: cell-based, Murin; conditions: Mus musculus, BaF3, read-out: IC50 in Transfected Ba/F3 cells, FLT3 ITD
# [3] = test system: Ba/F3-ITD + D835H (FLT3-ITD + D835H); assay: Antiproliferative activity (Table 6); type: cell-based, Murin; conditions: 72 h
# Ba/F3-ITD (FLT3-ITD) = assay: Antiproliferative activity (Table 6); type: cell-based, Murin; conditions: 72 h
# Mino = assay: Apoptosis in B-cell malignancies (annexin V/PI, cleaved PARP); type: cell-based, human; conditions: increasing concentrations
# Method: Mechanistic studies were undertaken to determine the mechanism of action for Compound 7. The apoptotic state of treated cells was determined by staining with annexin V and propidium iodide (PI), then analysis with the BD Accuri C6 flow cytometer, whereby live cells are annexin V/PI negative, early apoptotic cells are annexin V positive and late apoptotic cells are annexin V and PI positive. In addition production of cleaved PARP, a classic apoptotic marker, was assayed by western blotting with specific antibodies.
# [4] = test system: BTK and Aurora kinase in Ramos cells; assay: Cell signaling in Ramos cells (Western blot); type: cell-based; conditions: relative to ibrutinib
# Method: Immunoblot assays: Cells were treated with Compound 7 at various concentrations and collected for cell lysates. The total and phosphorylated levels of the indicated proteins were determined by Western Blot.
# Mino cells = assay: Polyploidy in B-cell lines (Edu and PI staining, FACS); type: cell-based, human; conditions: 0.1 and 1.0 nM
# Method: Further mechanistic studies were undertaken to fully elucidate Compound 7's potent cytotoxicity. B-cell lines were treated with vehicle or Compound 7 for 24-72 hours and the increase in DNA content or polyploidy phenotype was assessed using Edu and PI staining followed by FACS analysis using the BD Accuri C6 flow cytometer.
# Mino and Ramos cell lines were treated with increasing concentrations of.
# C481S BTK = biological target: T1, C481S BTK (Homo sapiens, UniProt Q06187, C481S); assay: BTK phosphorylation in transfected HEK293T cells (Western blot); type: cell-based; conditions: HEK293T transfected with C481S BTK; 0.5 and 1.0 μM, six hours
# T1 construct: expressed in transfected cells; host or cells: HEK293T
# Method: (§1) HEK293T cells were transiently transfected with wild-type BTK or C481S BTK. The transfected cells were treated with or without Compound 7 (0.5 and 1.0 μM) for six hours. This was performed in triplicate and the results were analyzed by Western Blot analysis.
# wild-type BTK = biological target: T2, wild-type BTK (Homo sapiens, UniProt Q06187); assay: as above; type: cell-based; conditions: HEK293T transfected with wild-type BTK; 0.5 and 1.0 μM, six hours
# T2 construct: expressed in transfected cells; host or cells: HEK293T
# Method: as §1
# FLT3(ITD) = FLT3(ITD) (Homo sapiens, UniProt P36888); assay: Binding constant (Kd), competition binding with qPCR readout; design: other: FLT3(ITD); kinase-tagged T7 phage strains were prepared in an E. coli host derived from the BL21 strain; fused on or other part: T7 phage fusion or DNA tag for qPCR detection
# [5] = test system: MV4-11 (FLT3-ITD, t(4:11)); assay: Antiproliferative activity (Table 6); type: cell-based; conditions: Homo sapiens, MV4-11, 72 h
# MV4-11 = assay: Cytotoxicity in high serum conditions (MTS); type: cell-based, human; conditions: MV4-11, 72 hours, 10% vs 30%, 50%, 80% FBS
# Method: Compound 7 was tested in a dose-dependent manner at different serum concentrations. […] In this experiment, MV4-11 (n=6) and EOL-1(n=3˜6) cells were treated with or without Compound 7 for 72 hours in medium containing normal (10%) or high serum (30%, 50%, 80%) FBS with an MTS assay serving as an end point.
# [6] = test system: Ba/F3-ITD + 691 (ITD + F691L); assay: Antiproliferative activity (Table 6); type: cell-based, Murin; conditions: 72 h
# [7] = test system: Ba/F3-ITD + D835Y (FLT3-ITD + D835Y); assay: Antiproliferative activity (Table 6); type: cell-based, Murin; conditions: 72 h
# KG-1 cells = assay: Cell-cycle dysregulation (flow cytometry); type: cell-based; conditions: dose-dependent
# Method: Cell-cycle analysis: Cells were treated with vehicle, DMSO or Compound 7 and were stained with PI and EdU, and then analyzed by flow cytometry to determine the phases of cell cycle.
# U2932 = assay: Cytotoxicity, MTS cell viability; type: cell-based; conditions: Homo sapiens, 72 h, ABC-DLBCL, 3 days MTS
# Method: (§2) Cells were seeded in a 96 well plate and treated with either vehicle (DMSO) or compound 7 at 10 different concentrations for 3 days at 37° C. and 5% CO2. Cell viability was assessed using CellTiter 96 AQueous one solution (MTS Promega Cat#G3581), and IC50 values calculated using GraphPad Prism 7 software.
# OCI-LY3 = assay: Cytotoxicity, MTS cell viability; type: cell-based; conditions: Homo sapiens, 72 h, ABC-DLBCL, 3 days MTS
# Method: as §2
# SU-DHL2 = assay: Cytotoxicity, MTS cell viability; type: cell-based; conditions: Homo sapiens, SU-DHL-2, 72 h, ABC-DLBCL, 3 days MTS
# Method: as §2
# BJAB = assay: Cytotoxicity, MTS cell viability; type: cell-based; conditions: Homo sapiens, 72 h, GCB-DLBCL, 3 days MTS
# Method: as §2
# DOHH2 = assay: Cytotoxicity, MTS cell viability; type: cell-based; conditions: Homo sapiens, DOHH-2, 72 h, FL, 3 days MTS
# Method: as §2
# MHH-Call4 = assay: Cytotoxicity, MTS cell viability; type: cell-based; conditions: MHHCALL4, 72 h, B-ALL, 3 days MTS
# Method: as §2
# Kasumi-1 (FLT3-WT) = assay: Antiproliferative activity (Table 6); type: cell-based; conditions: Homo sapiens, Kasumi 1, 72 h
# [8] = test system: Ba/F3-ITD + 842 (ITD + Y842C); assay: Antiproliferative activity (Table 6); type: cell-based, Murin; conditions: 72 h
# T2 sequence (Q06187 whole entry): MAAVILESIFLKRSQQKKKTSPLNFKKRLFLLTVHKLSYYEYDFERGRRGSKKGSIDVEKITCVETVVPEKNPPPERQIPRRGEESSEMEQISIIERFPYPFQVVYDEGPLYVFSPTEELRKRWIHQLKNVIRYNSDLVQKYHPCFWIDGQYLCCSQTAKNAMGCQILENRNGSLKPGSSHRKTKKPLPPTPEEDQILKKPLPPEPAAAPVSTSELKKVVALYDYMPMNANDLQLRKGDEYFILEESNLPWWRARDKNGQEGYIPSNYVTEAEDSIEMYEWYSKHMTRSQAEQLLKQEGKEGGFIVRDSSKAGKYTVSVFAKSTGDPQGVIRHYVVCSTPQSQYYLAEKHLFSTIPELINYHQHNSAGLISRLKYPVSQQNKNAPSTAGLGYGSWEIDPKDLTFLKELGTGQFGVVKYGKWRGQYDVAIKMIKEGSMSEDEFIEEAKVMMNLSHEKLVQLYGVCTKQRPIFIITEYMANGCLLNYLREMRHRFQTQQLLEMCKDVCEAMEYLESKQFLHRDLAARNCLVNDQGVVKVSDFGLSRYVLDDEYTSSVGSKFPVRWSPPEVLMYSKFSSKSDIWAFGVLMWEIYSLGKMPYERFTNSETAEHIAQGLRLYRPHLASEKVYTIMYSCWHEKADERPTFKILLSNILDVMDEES
# T1 sequence (Q06187 whole entry C481S): as the sequence (Q06187 whole entry) above, with C481S counted along it
structure (smiles),measurement,setting,value
"Cc1cnc(-c2ccc(-c3ccc(NC(=O)Nc4c(F)cc(F)cc4F)cc3F)c3c2C(=O)NC3)[nH]1 [Compound 7, 1-{3-fluoro-4-[7-(5-methyl-1H-imidazol-2-yl)-1-oxo-2,3-dihydro-1H-isoindol-4-yl]-phenyl}-3-(2,4,6-trifluorophenyl)urea]",Aurora kinase inhibition (phosphorylation patterns),[1],effective as an Aurora Kinase inhibitor
same,IC50,[2],0.5 nM
same,IC50,[3],6.74 nM
same,IC50,Ba/F3-ITD (FLT3-ITD),0.3 nM
same,Apoptosis induction versus ibrutinib,Mino,induced apoptosis more effectively than ibrutinib at all concentrations tested
same,BTK and Aurora kinase activity,[4],inhibits BTK and Aurora kinase activity
same,Polyploidy (>4n) followed by apoptosis,Mino cells,effectively induced polyploidy (>4n) followed by apoptosis
same,Inhibition of BTK (reduction in phosphorylated forms),C481S BTK,inhibits both wild-type and the C481S mutant form of BTK
same,Inhibition of BTK (reduction in phosphorylated forms),wild-type BTK,inhibits both wild-type and the C481S mutant form of BTK
same,Kd,FLT3(ITD),3.1 nM
same,IC50,[5],0.17 nM
same,Activity at high serum concentration,MV4-11,retains high activity at high serum concentration
same,IC50,[6],0.43 nM
same,IC50,[7],9.72 nM
same,Cell-cycle dysregulation,KG-1 cells,induce cell-cycle dysregulation
same,IC50,U2932,632 nM
same,IC50,OCI-LY3,830 nM
same,IC50,SU-DHL2,744 nM
same,IC50,BJAB,882 nM
same,IC50,DOHH2,2.94 nM
same,IC50,MHH-Call4,27.8 nM
same,IC50,Kasumi-1 (FLT3-WT),22 nM
same,IC50,[8],0.73 nM
